ChEMBL document CHEMBL5058564, “EUbOPEN Chemogenomics Library 2 (Incucyte)” (2022)

Experiments:
Type in all cases: toxicity, cell-based
U2OS = assay: Incucyte cell viability with U2OS; conditions: human, 10 µM, compound concentration 10 uM
Fibroblast = assay: Incucyte cell viability with human fibroblast; conditions: 10 µM, compound concentration 10 uM
HEK-293T = assay: Incucyte cell viability with HEK293T; conditions: human, 10 µM, compound concentration 10 uM
[1] = 0 h, replicate number 1, timepoint 0 hours
[2] = 6 h, replicate number 1, timepoint 6 hours
[3] = 12 h, replicate number 1, timepoint 12 hours
[4] = 18 h, replicate number 1, timepoint 18 hours
[5] = 24 h, replicate number 1, timepoint 24 hours
[6] = 0 h, replicate number 2, timepoint 0 hours
[7] = 6 h, replicate number 2, timepoint 6 hours
[8] = 12 h, replicate number 2, timepoint 12 hours
[9] = 18 h, replicate number 2, timepoint 18 hours
[10] = 24 h, replicate number 2, timepoint 24 hours
Further: unitless GR value; below 1 slowed growth and below 0 cell loss.

Compound | Growth Rate (U2OS; [1]) | Growth Rate (U2OS; [4]) | Growth Rate (U2OS; [5]) | Growth Rate (Fibroblast; [6]) | Growth Rate (Fibroblast; [2]) | Growth Rate (Fibroblast; [7]) | Growth Rate (Fibroblast; [3]) | Growth Rate (Fibroblast; [8]) | Growth Rate (Fibroblast; [4]) | Growth Rate (Fibroblast; [9]) | Growth Rate (Fibroblast; [5]) | Growth Rate (Fibroblast; [10]) | Growth Rate (HEK-293T; [2]) | Growth Rate (HEK-293T; [5]) | Growth Rate (U2OS; [9]) | Growth Rate (U2OS; [10]) | Growth Rate (HEK-293T; [3]) | Growth Rate (HEK-293T; [8]) | Growth Rate (HEK-293T; [4]) | Growth Rate (HEK-293T; [9]) | other results
CCC(=O)NCC[C@@H]1CCc2ccc3c(c21)CCO3 [RAMELTEON] | -0.01 | 0.88 | 0.82 | 0.17 | 0.76 | 0.51 | 0.96 | 0.73 | 0.96 | 0.83 | 0.77 | 0.89 | 0.99 | 0.86 |  |  |  |  |  |  | Growth Rate (U2OS; [2]): 0.45; Growth Rate (U2OS; [3]): 0.54; Growth Rate (Fibroblast; [1]): 0.51; Growth Rate (HEK-293T; [1]): 0.12; Growth Rate (HEK-293T; [6]): -0.36
CN(c1ncccc1CNc1ccnc(-c2cc3cc(Cl)ccc3[nH]2)n1)S(C)(=O)=O | -0.74 | 0.58 | 0.61 |  | -0.63 | -0.2 | -0.43 | -0.15 | -0.12 | -0.08 | 0.15 | 0.04 | -0.71 | -0.24 | 0.74 | 0.7 | -0.48 | -0.31 | -0.36 | -0.25 | Growth Rate (U2OS; [6]): 1; Growth Rate (U2OS; [2]): 0.59; Growth Rate (U2OS; [3]): 0.52; Growth Rate (U2OS; [8]): 0.71; Growth Rate (HEK-293T; [7]): -0.53; Growth Rate (HEK-293T; [10]): -0.09
Cc1ccccc1C(=O)Nc1ccc(C(=O)N2CCCC(N(C)C)c3ccccc32)cc1.Cl (centres undefined) | 0.36 | -0.06 | -0.11 |  | -0.99 | -0.65 | -0.85 | -0.38 | -0.63 | -0.1 | -0.44 | 0.07 | -0.55 | 0.1 | -0.09 | -0.08 | -0.32 | -0.03 | -0.11 | 0.08 | Growth Rate (U2OS; [2]): 0.05; Growth Rate (U2OS; [7]): -0.11; Growth Rate (U2OS; [3]): -0.03; Growth Rate (U2OS; [8]): -0.22; Growth Rate (HEK-293T; [7]): -0.44; Growth Rate (HEK-293T; [10]): 0.22
CN(CCN1CCC(OC(=O)Nc2ccccc2-c2ccccc2)CC1)C(=O)c1ccc(CN2CCC(C(N)=O)CC2)cc1 [REVEFENACIN] | 0.88 |  |  | 0.62 |  | 0.71 | 0.73 | 0.65 | 0.65 | 0.9 | 0.56 | 0.97 | 0.97 | 0.9 |  |  | 0.95 | 0.59 | 0.98 | 0.74 | Growth Rate (U2OS; [6]): 0.11; Growth Rate (HEK-293T; [10]): 0.78
COC[C@@H](c1ccc(C(F)(F)F)cc1)N1CCN(C2(C)CCN(C(=O)c3c(C)ncnc3C)CC2)C[C@@H]1C.O=C(O)/C=C\C(=O)O [VICRIVIROC MALEATE] | -0.67 | 0.7 | 0.8 |  | -0.4 | 0.52 | 0.17 | 0.68 | 0.48 | 0.79 | 0.67 | 0.83 |  | 0.39 | 0.98 | 0.97 | 0.66 |  | 0.49 |  | Growth Rate (U2OS; [6]): -0.31; Growth Rate (U2OS; [2]): 0.58; Growth Rate (U2OS; [3]): 0.57; Growth Rate (U2OS; [8]): 0.98; Growth Rate (HEK-293T; [1]): 0.38; Growth Rate (HEK-293T; [6]): -1
CC(C)(C)c1ccc(CSc2cnn(C(C)(C)C)c(=O)c2Cl)cc1 [PYRIDABEN] |  | 0.62 | 0.86 | -0.26 | -0.33 | 0.56 | -0.26 | 0.81 | -0.13 | 0.71 | -0.12 | 0.08 | -0.14 | 0.1 | 0.92 | 0.96 | 0.01 | -0.01 | 0.13 | 0.2 | Growth Rate (U2OS; [6]): -1; Growth Rate (HEK-293T; [1]): 0.63; Growth Rate (HEK-293T; [6]): 0.94; Growth Rate (HEK-293T; [7]): -0.1; Growth Rate (HEK-293T; [10]): 0.22
COc1ccncc1C(=O)NC(=O)Nc1ccc(-c2ccccc2)c(C(F)(F)F)c1 |  |  |  | 0.72 | -0.12 | 0.15 | 0.58 |  | 0.7 |  | 0.92 |  | 0.25 | 0.69 | 0.94 | 1 | 0.48 | 0.74 | 0.58 | 0.86 | Growth Rate (U2OS; [7]): 0.74; Growth Rate (Fibroblast; [1]): 0.48; Growth Rate (HEK-293T; [7]): 0.96
COc1cc(Nc2ncc3c(n2)-c2ccc(Cl)cc2C(c2c(F)cccc2OC)=NC3)ccc1C(=O)O [ALISERTIB] | -0.14 | 0.19 | 0.39 | 0.68 | -0.97 | -0.09 | -0.79 | -0.17 | -0.64 | -0.13 | -0.39 | -0.09 | -0.03 | 0.38 | 0.45 | 0.65 | 0.13 | 0 | 0.39 | 0.33 | Growth Rate (U2OS; [6]): 0.41; Growth Rate (U2OS; [2]): 0.83; Growth Rate (U2OS; [3]): 0.43; Growth Rate (U2OS; [8]): 0.54; Growth Rate (HEK-293T; [7]): 0.03; Growth Rate (HEK-293T; [10]): 0.26
Cc1cc(C)cc([C@H]2c3cc(C)ccc3NC(=O)CN2C(=O)c2ccc(Br)s2)c1 | -0.56 | 0.52 | 0.67 | 0.88 | 0.06 |  | 0.6 | 0.64 | 0.44 |  | 0.33 | 0.97 | 0.95 | 0.65 | 0.88 | 0.94 | 0.79 | 0.81 | 0.58 | 0.92 | Growth Rate (U2OS; [2]): 0.12; Growth Rate (U2OS; [3]): 0.65; Growth Rate (Fibroblast; [1]): 0.07; Growth Rate (HEK-293T; [1]): -0.3; Growth Rate (HEK-293T; [6]): 0.03; Growth Rate (HEK-293T; [10]): 0.83
CC[C@H]1CN2CCc3cc(OC)c(OC)cc3[C@@H]2C[C@@H]1C[C@H]1NCCc2cc(OC)c(OC)cc21 [EMETINE] |  | 0.21 | 0 | 0.68 | -0.4 | -0.75 | -0.71 | -0.61 | -0.63 | -0.61 | -0.47 | -0.61 | -0.64 | -0.45 | 0.25 | 0.17 | -0.71 | -0.68 | -0.56 | -0.65 | Growth Rate (U2OS; [6]): -1; Growth Rate (U2OS; [2]): 0.25; Growth Rate (U2OS; [7]): 0.89; Growth Rate (U2OS; [3]): 0.43; Growth Rate (U2OS; [8]): 0.49; Growth Rate (HEK-293T; [6]): 0.89; Growth Rate (HEK-293T; [7]): -0.77; Growth Rate (HEK-293T; [10]): -0.51
CC(/C=C1\SC(=S)N(CCCC(=O)Nc2ccc(C(=O)O)c(O)c2)C1=O)=C\c1ccccc1 | 0.71 |  |  | -0.04 | 0.97 |  |  |  |  |  | 0.83 |  |  |  |  |  |  |  |  |  | Growth Rate (U2OS; [6]): -1; Growth Rate (U2OS; [7]): 0.79; Growth Rate (HEK-293T; [1]): 0.57; Growth Rate (HEK-293T; [6]): 0.54
